Laboratory results: US9028890B2, “Composition for improving sexual wellness” (Horphag Research (IP) Pre Ltd., priority 2010, dated 2015)

How the values were obtained:
[1] = tested on: Adult women of all ages with a score lower than four points for all five domains; assay: Women responding by FSFI: score equal to or higher than four points for all five domains after four weeks (Examples 3, 5, 6); type: in vivo, human; details: daily supply, four weeks treatment
Source text: Women's sexual function is scored using the established “Female Sexual Function Index” (FSFI) questionnaire [Rosen et al., 2000]. The questionnaire allows to score prevalence of six subcategories (domains) related to female sexual function, with minimum and maximum scores given:
Adult women of all ages were investigated who presented with a score lower than four points out of maximum six points for all five domains.
The investigation depicts the number of responders to the intervention as detailed in the tables after four weeks treatment with a score equal to or higher than four points for all five domains.

postmenopausal women [2] = details: taken together with supplemental hormones, cited from earlier work
postmenopausal women [3] = details: cited from earlier work

N=C(N)NCCC[C@H](N)C(=O)O [2.8 g L-arginine, L-arginine]
Responders (women responding with improvement / n) [1]: 5/26

CCCc1nn(C)c2c(=O)[nH]c(-c3cc(S(=O)(=O)N4CCN(C)CC4)ccc3OCC)nc12 [sildenafil]
women who reported improved genital sensations (postmenopausal women [2]; 202 postmenopausal women, placebo group 43 percent): 57% | group members who reported greater satisfaction with sex (postmenopausal women [2]; placebo group 27 percent): Forty-one | treatment of SD (postmenopausal women [3]): not effective
